From US8961930B2, “Isatin derivatives for use as in vivo imaging agents” (Imperial Innovations Limited, priority 2008, dated 2015) come the findings set out here.

In series [1] the target is T1, caspase 3 (Homo sapiens, UniProt P42574).
T1 sequence (P42574 29-175 limits assumed): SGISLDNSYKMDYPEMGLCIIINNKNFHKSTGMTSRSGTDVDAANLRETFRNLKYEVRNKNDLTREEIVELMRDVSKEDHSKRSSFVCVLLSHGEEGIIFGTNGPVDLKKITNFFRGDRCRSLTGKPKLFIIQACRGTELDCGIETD
T1 sequence (P42574 176-277 limits assumed): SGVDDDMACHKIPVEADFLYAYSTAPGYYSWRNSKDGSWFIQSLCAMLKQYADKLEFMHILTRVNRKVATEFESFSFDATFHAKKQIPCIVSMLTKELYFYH
In words: Fluorimetric in vitro caspase inhibition assay (7-AMC), caspase 3. More on the design: purchased Biomol International, UK. It counts as biochemical. The conditions noted are these: for EC50: recombinant human caspase 3, 10 μM Ac-DEVD-AMC; for increase in potency as compared to known benzyl derivative 15: caspase 3, versus compound 15. How it is done:
Recombinant human caspases-1, -3, -6, -7, and -8 and their peptide-specific substrates were purchased from Biomol International, UK Inhibition of the recombinant caspases by non-radioactive isatins was assessed using a fluorometric assay that measures the accumulation of a fluorogenic product, 7-amino-4-methylcoumarin (7-AMC). All assays were performed in 96-well plates at a volume of 200 μl per well. The assays were performed at 37° C. in an appropriate reaction buffer as described below for each caspase. For caspase 1, the buffer comprised of 0.1% CHAPS, 100 mM NaCl, 5 mM 2-mercaptoethanol, 100 mM HEPES (pH 7.4), 2 mM EDTA, 10% sucrose, and 10 μM of the peptide substrate Ac-YVAD-AMC. For caspase 3: 20 mM HEPES (pH 7.4), 10% sucrose, 100 mM NaCl, 0.1% CHAPS, 2 m, mM EDTA, and 10 μM Ac-DEVD-AMC. For caspase 6: 20 mM HEPES (pH 7.4), 10% sucrose, 100 mM NaCl, 0.1% CHAPS, 2 mM EDTA, and 10 μM Ac-VEID-AMC. For caspase 7: 20 mM HEPES (pH 7.4), 10% sucrose, 5 mM 2-mercaptoethanol, 100 mM NaCl, 0.1% CHAPS, 2 mM EDTA, 10 μM Ac-DEVD-AMC. For caspase 8: 20 mM HEPES (pH 7.4), 10% sucrose, 100 mM NaCl, 0.1% CHAPS, 2 mM EDTA, and 10 μM Ac-IETD-AMC. The Buffers contained non-radioactive isatins in DMSO at a final concentration of 500, 50, 5 μM; 500, 50, 5 nM; 500, 50, 5 pM; the final concentration of DMSO in all wells was 5% of the total volume. Recombinant caspases were used at 0.5 units per assay (˜500 pmol substrate converted per h). All reagents except the peptide substrate were pre-incubated for 10 min. The peptide substrate (final concentration 10 μM) was then added and the plate was incubated for a further 30 min; 30 min was selected after initial linearity study where reaction was assessed after 10, 30, 60 or 90 min. The 30 min time point was selected. Respective control wells contained all reaction components without enzyme. The amount of 7-AMC produced was measured on a fluorescence microplate reader (Victor2; Perkin-Elmer Life sciences) at excitation and emission wavelengths of 355 nm and 460 nm, respectively. The concentration of isatin that inhibits the caspase activity by 50% (EC50) was estimated by non-linear regression analysis using GraphPad Prism (Version 4.0 for Windows, GraphPad Software, San Diego Calif. USA). All the isatins were analyzed in duplicate; the assays were repeated once.
The data are the average for two runs, each of which was duplicated, at nine concentrations ranging from 5 pM to 500 μM; the drug concentration required to inhibit each enzyme by 50% (EC50) was obtained from nonlinear regression analysis of the inhibition profiles.

Series [2] is described as follows: In vitro mouse liver S9 metabolism studies. The class given is in vitro ADME. To be noted: 60 min incubation, 37° C., HPLC. How it is done: Liver S9 metabolism studies were performed as described in Aboagye et al^19. Mouse livers were rapidly excised and kept at 4° C. throughout the experiment. Tissues were weighed and homogenized in an equivalent volume of 50 mM Tris-150 mM KCl-HCl buffer (pH 7.4) using an Ultra-Thurrax homogenizer (IKA, Staufen, Germany). To obtain the S9 fraction, the homogenate was centrifuged (10,000×g) for 30 min to remove nuclei, mitochondria and cell debris. Protein concentration of the S9 fraction was determined by a commercial BCA protein assay kit (Perbio Science, Cheshire, UK). S9 fractions were stored at −80° C. for up to 6 weeks. […]
Immediately prior to extraction the samples were thawed and placed on ice. For extraction, ice cold acetonitrile (1.5 mL) was added to plasma (0.2 mL); S9 incubation samples (3 mL) containing acetonitrile were also analysed. […] The samples (1 mL) were then analyzed by radio-HPLC on an Agilent 1100 series HPLC system (Agilent Technologies, Stockport, UK) equipped with a γ-RAM Model 3 gamma-detector and the Laura software (IN/US Systems inc., Florida, USA).
The stationary phase comprised of a Waters μBondapak C18 reverse-phase column (300×7.8 mm). For analysis of [^125I]14, plasma and liver samples were processed as above and analyzed by using a mobile phase comprising of water (0.1% TFA)/propan-1-ol (0.1% TFA) (35:65) running in isocratic mode at a flowrate of 2 mL/min. […]

As a reminder, the EC50 is the midpoint of the concentration-response curve.

`O=C1C(=O)N(Cc2ccc(F)cc2)c2ccc(S(=O)(=O)N3CCC[C@H]3COc3cccc(F)c3)cc21` [Compound 1, (S)-1-(4-Fluorobenzyl)-5-(2-(3-fluorophenoxymethyl)-pyrrolidine-1-sulfonyl)isatin]: in series [1], the EC50 amounted to 17 nM. Further, the “increase of affinity for caspase 3 as compared with compound 14” value in series [1] (versus known compound 14) was “two- to three-fold”.
With `O=C1C(=O)N(Cc2ccc(F)cc2)c2ccc(S(=O)(=O)N3CCC[C@H]3COc3ccc(F)cc3F)cc21` [Compound 2, (S)-1-(4-Fluorobenzyl)-5-(2-(2,4-difluorophenoxymethyl)-pyrrolidine-1-sulfonyl)isatin], the EC50 in series [1] was 12.4 nM.
On to `O=C1C(=O)N(Cc2ccc(F)cc2)c2ccc(S(=O)(=O)N3CCC[C@H]3COC3CCOCC3)cc21` [Compound 4, (S)-1-(4-Fluorobenzyl)-5-(2-(tetrahydro-2H-pyran-4-yloxymethyl)-pyrrolidine-1-sulfonyl)isatin], for which, in series [1], the “increase in potency as compared to known benzyl derivative 15” value is listed as “five-fold” and the EC50 was 10.7 nM.
Take `O=C1C(=O)N(Cc2ccc(F)cc2)c2ccc(S(=O)(=O)N3CCC[C@H]3COc3ccncn3)cc21` [Compound 5, (S)-1-(4-Fluorobenzyl)-5-(2-(pyrimidin-4-yloxymethyl)-pyrrolidine-1-sulfonyl)isatin]: the EC50 in series [1] is 5.5 nM.
As to `O=C1C(=O)N(Cc2cn(CCF)nn2)c2ccc(S(=O)(=O)N3CCC[C@H]3COc3ccccc3)cc21` [Compound 10, (S)-1-((1-(2-Fluoroethyl)-1H-[1,2,3]-triazol-4-yl)methyl)-5-(2-phenoxymethyl-pyrrolidine-1-sulfonyl)isatin], in series [1], the “increase in potency as compared to known benzyl derivative 15” value is 4 fold and the EC50 came out at 16.7 nM.
Take `O=C1C(=O)N(Cc2cn(CCF)nn2)c2ccc(S(=O)(=O)N3CCC[C@H]3COc3ccc(F)cc3F)cc21` [Compound 11, (S)-1-((1-(2-Fluoroethyl)-1H-[1,2,3]-triazol-4-yl)methyl)-5-(2(2,4-difluorophenoxymethyl)-pyrrolidine-1-sulfonyl)isatin]: the EC50 in series [1] came out at 0.5 nM.
Regarding `O=C1C(=O)N(Cc2ccccc2)c2ccc(S(=O)(=O)N3CCC[C@H]3COc3ccccc3)cc21` [Compound 13, (S)-1-benzyl-5-(2-phenoxymethyl-pyrrolidine-1-sulfonyl)isatin, reference compound], the EC50 in series [1] was 41.8 nM.
With `O=C1C(=O)N(Cc2ccc(I)cc2)c2ccc(S(=O)(=O)N3CCC[C@H]3COc3ccccc3)cc21` [Compound 14, (S)-1-(4-iodobenzyl)-5-(2-phenoxymethyl-pyrrolidine-1-sulfonyl)isatin, reference compound], the “degradation in mouse liver S9 fraction” value in series [2] is reported as “near complete degradation”.
Regarding `O=C1C(=O)N(Cc2ccc(F)cc2)c2ccc(S(=O)(=O)N3CCC[C@H]3COc3ccccc3)cc21` [Compound 15, (S)-1-(4-fluorobenzyl)-5-(2-phenoxymethyl-pyrrolidine-1-sulfonyl)isatin, reference compound], in series [2], the “degradation in mouse liver S9 fraction” value is listed as “near complete degradation”. Also, in series [1], the EC50 was found to be 50.5 nM.
For the molecule `O=C1C(=O)N(Cc2ccc(F)cc2)c2ccc(S(=O)(=O)N3CCCC3)cc21` [Compound 16, 1-(4-Fluorobenzyl)-5-(pyrrolidine-1-sulfonyl)isatin, reference compound], the EC50 in series [1] was 200 nM.
Regarding `O=C1C(=O)N(Cc2ccc(F)cc2)c2ccc(S(=O)(=O)N3CCC[C@H]3COc3ccc(F)cc3)cc21` [Compound 22, (S)-1-(4-Fluorobenzyl)-5-(2-(4-fluorophenoxymethyl)-pyrrolidine-1-sulfonyl)isatin], the EC50 in series [1] worked out at 26.1 nM.
Turning to `C#CCN1C(=O)C(=O)c2cc(S(=O)(=O)N3CCC[C@H]3COc3ccc(F)cc3F)ccc21` [Compound 25, (S)-1-(2-Propynyl)-5-(2-(2,4-difluorophenoxymethyl)-pyrrolidine-1-sulfonyl)isatin], the EC50 in series [1] was 50.1 nM.
